Assay results reported in ChEMBL document CHEMBL1123545 (J Med Chem, 1986).
Values after ≈ are worked out from the molar mass of the structure shown.

Columns and labels:
[1] = tested on: Enterococcus faecium; test: Compound was evaluated for growth inhibition against Streptococcus faecium ATCC 8043; format: functional, organism-based
[2] = tested on: L1210; test: Compound was evaluated for growth inhibition and minimal inhibitory concentration was reported against L1210 cells.; format: functional, Mus musculus
[3] = tested on: Mus musculus; test: (§1) Antitumor activity against L1210 leukemia in mice after subcutaneous administration (Q2Dx5) at a dose 9 mg/kg out of 10 mice tested; format: ADME, organism-based; parameters: dose 9 mg/kg, route subcutaneous; conditions: in vivo, sc
[4] = tested on: L1210; test: (§2) Compound was evaluated for transport properties against L1210 cells for influx; format: functional, cell-based, Mus musculus
[5] = tested on: Lacticaseibacillus casei; test: Compound was evaluated for growth inhibition against Lactobacillus casei ATCC 7469; format: functional, organism-based
[6] = tested on: Mus musculus; test: Compound was evaluated for antitumor activity against L1210 leukemia in mice after subcutaneous administration (Q2Dx5) at a dose 18 mg/kg; format: functional
[7] = tested on: Mus musculus; test: Compound was evaluated for antitumor activity against L1210 leukemia in mice after subcutaneous administration (Q2Dx5) at a dose 12 mg/kg; format: functional
[8] = tested on: Mus musculus; test: (§3) Antitumor activity against L1210 leukemia in mice after subcutaneous administration (Q2Dx5) at a dose 18 mg/kg out of 10 mice tested; format: functional
[9] = tested on: Mus musculus; test: (§4) Antitumor activity against L1210 leukemia in mice after subcutaneous administration (Q2Dx5) at a dose 12 mg/kg out of 10 mice tested; format: ADME, organism-based; parameters: dose 12 mg/kg, route subcutaneous; conditions: in vivo, sc
[10] = tested on: Mus musculus; test: (§5) Antitumor activity against L1210 leukemia in mice after subcutaneous administration (Q2Dx5) at a dose 24 mg/kg out of 10 mice tested; format: functional
[11] = tested on: Mus musculus; test: Compound was evaluated for antitumor activity against L1210 leukemia in mice after subcutaneous administration (Q2Dx5) at a dose 9 mg/kg; format: functional
[12] = tested on: L1210; test: Compound was evaluated for transport properties against L1210 cells for efflux; format: functional, Mus musculus
[13] = tested on: Mus musculus; test: as §3; format: ADME, organism-based; parameters: dose 18 mg/kg, route subcutaneous; conditions: in vivo, sc
[14] = tested on: Mus musculus; test: as §4; format: functional
[15] = tested on: Mus musculus; test: as §5; format: ADME, organism-based; parameters: dose 24 mg/kg, route subcutaneous; conditions: in vivo, sc
[16] = tested on: Mus musculus; test: Compound was evaluated for antitumor activity against L1210 leukemia in mice after subcutaneous administration (Q2Dx5) at a dose 24 mg/kg; format: functional; conditions: for ILS at 24 mg/kg: L1210, sc
[17] = tested on: Mus musculus; test: as §1; format: functional
[18] = target: T1, Dihydrofolate reductase (Mus musculus, UniProt P00375); test: Compound was evaluated for binding affinity against Dihydrofolate reductase of L1210 cells; format: cell-based
T1 sequence (P00375 whole entry): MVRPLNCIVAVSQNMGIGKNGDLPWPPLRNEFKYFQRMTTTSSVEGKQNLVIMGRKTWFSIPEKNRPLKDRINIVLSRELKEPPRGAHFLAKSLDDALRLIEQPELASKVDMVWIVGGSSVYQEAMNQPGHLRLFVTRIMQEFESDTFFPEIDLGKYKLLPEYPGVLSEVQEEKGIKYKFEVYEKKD

[19] = tested on: L1210; test: as §2; format: functional, Mus musculus
[20] = tested on: Mus musculus; test: Compound was evaluated for antitumor activity against L1210 leukemia in mice after subcutaneous administration (Q2Dx5) at a dose 32 mg/kg; format: functional; conditions: L1210, sc
[21] = tested on: Mus musculus; test: (§6) Antitumor activity against L1210 leukemia in mice after subcutaneous administration (Q2Dx5) at a dose 32 mg/kg out of 10 mice tested; format: functional
[22] = tested on: Mus musculus; test: as §6; format: ADME, organism-based; parameters: dose 32 mg/kg, route subcutaneous; conditions: in vivo, sc
[23] = tested on: Mus musculus; test: Compound was evaluated for antitumor activity against L1210 leukemia in mice after subcutaneous administration (Q2Dx5) at 24 mg/kg; format: functional
[24] = tested on: Mus musculus; test: Compound was evaluated for antitumor activity against L1210 leukemia in mice after subcutaneous administration (Q2Dx5) at 18 mg/kg; format: functional
[25] = tested on: Mus musculus; test: Compound was evaluated for antitumor activity against L1210 leukemia in mice after subcutaneous administration (Q2Dx5) at 32 mg/kg; format: functional
[26] = Enterococcus faecium, ATCC 8043, read-out: IC50

SMILES	IC50 [1, 26]	Toxic deaths [3]	Ki [4]	MST [7]	30 days survivors [8]	Toxic deaths [9]	30 days survivors [10]	MST [11]	Toxic deaths [13]	30 days survivors [14]	Toxic deaths [15]	ILS at 24 mg/kg [16]	30 days survivors [17]	also measured
CC[C@H](CC1CNc2nc(N)nc(N)c2N1)c1ccc(C(=O)N[C@@H](CCC(=O)O)C(=O)O)cc1 (mixture of isomers)	2.5 ng/mL	–	–	–	–	–	–	–	–	–	–	–	–	–
CN(Cc1cnc2nc(N)nc(N)c2n1)c1ccc(C(=O)N[C@@H](CCC(=O)O)C(=O)O)cc1 [METHOTREXATE]	–	0	5610 nM	16.3 days	0	1	0	15.7 days	6	0	10	46%	0	MIC50 ([2]; Mus musculus): 2.48 nM (≈ 1.13 ng/mL); IC50 [5]: 0.013 ng/mL (≈ 0.0286 nM); ILS [6]: 119%; MST [6]: 14.5 days; IC50 [1]: 0.4 ng/mL (≈ 0.88 nM); ILS [11]: 137%; k [12]: 0.213 min⁻¹; MST [16]: 9.6 days
C[C@H](Cc1cnc2nc(N)nc(N)c2n1)c1ccc(C(=O)N[C@@H](CCC(=O)O)C(=O)O)cc1 (stereo in doubt; l-L-15a)	–	–	1900 nM	–	–	–	–	–	–	–	–	–	–	Ki [18]: 0.00317 nM; MIC50 [2]: 1.18 nM (≈ 0.535 ng/mL); k [19]: 0.267 min⁻¹
CCC(CC1=Nc2c(N)nc(N)nc2NC1)c1ccc(C(=O)NC(CCC(=O)O)C(=O)O)cc1 (racemic)	1.1 ng/mL (≈ 2.34 nM)	–	–	–	–	–	–	–	–	–	–	–	–	–
CC[C@@H](CC1=Nc2c(N)nc(N)nc2NC1)c1ccc(C(=O)N[C@@H](CCC(=O)O)C(=O)O)cc1 (stereo in doubt; form 2)	1.1 ng/mL (≈ 2.34 nM)	–	–	–	–	–	–	–	–	–	–	–	–	–
CCC(Cc1cnc2nc(N)nc(N)c2n1)c1ccc(C(=O)NC(CCC(=O)O)C(=O)O)cc1 (racemic)	–	0	–	16.7 days	0	0	2	15.5 days	0	0	2	207%	0	ILS at 32 mg/kg [20]: 67%; ILS at 18 mg/kg ([6]; Mus musculus, L1210, sc): 193%; 30 days survivors [21]: 0; ILS at 12 mg/kg ([7]; L1210, sc): 153%; Toxic deaths [22]: 10; ILS at 9 mg/kg ([11]; Mus musculus, L1210, sc): 135%; MST [23]: 20.3 days; MST [24]: 19.3 days; MST [25]: 16 days
